According to PMC10123497 (RSC Advances, 2023):
Where two headings read alike, the source gives them in different places.

Experiments:
[1] = test system: HepG2; assay: MTT in vitro cytotoxicity assay; details: for IC50: Homo sapiens, HepG2, 24 h, read-out: In vitro cytotoxicity activity IC50 ± SD; for Selectivity index (SI): (IC50 of WI-38)/(IC50 of HepG2)
[2] = test system: HCT-116; assay: MTT in vitro cytotoxicity assay; details: for IC50: Homo sapiens, HCT-116, 24 h, read-out: In vitro cytotoxicity activity IC50 ± SD; for Selectivity index (SI): (IC50 of WI-38)/(IC50 of HCT-116)
[3] = test system: MDA-MB-231; assay: MTT in vitro cytotoxicity assay; type: cell-based, human; details: for Selectivity index (SI): (IC50 of WI-38)/(IC50 of MDA-MB-231)
[4] = MTT cytotoxicity on non-tumorigenic normal cell line; type: cell-based; details: human, WI-38 cells (non-tumorigenic normal lung fibroblasts)
[5] = test system: MCF-7; assay: MTT in vitro cytotoxicity assay; details: for Selectivity index (SI): (IC50 of WI-38)/(IC50 of MCF-7); for IC50: read-out: In vitro cytotoxicity activity IC50 ± SD
[6] = test system: MCF-7 cells; assay: Cell cycle analysis by flow cytometry; type: cell-based, human; details: MCF-7 treated at IC50 = 3.82 μM
[7] = biological target: EGFR^Wt (Homo sapiens, UniProt P00533); assay: EGFR Kinase Assay Kit; type: biochemical
[8] = test system: MCF-7 cells; assay: Annexin-V/propidium iodide apoptosis assay; type: cell-based, human
[9] = biological target: VEGFR2 (Homo sapiens, UniProt P35968); assay: biochemical
[10] = biological target: EGFR^(L858R) (Homo sapiens, UniProt P00533, L858R); assay: EGFR; type: biochemical
[11] = test system: p53; assay: qRT-PCR gene expression in MCF-7; type: cell-based, human; details: MCF-7, vs untreated control = 1

EGFR^(L858R), sequence (P00533 25-1210 L858R): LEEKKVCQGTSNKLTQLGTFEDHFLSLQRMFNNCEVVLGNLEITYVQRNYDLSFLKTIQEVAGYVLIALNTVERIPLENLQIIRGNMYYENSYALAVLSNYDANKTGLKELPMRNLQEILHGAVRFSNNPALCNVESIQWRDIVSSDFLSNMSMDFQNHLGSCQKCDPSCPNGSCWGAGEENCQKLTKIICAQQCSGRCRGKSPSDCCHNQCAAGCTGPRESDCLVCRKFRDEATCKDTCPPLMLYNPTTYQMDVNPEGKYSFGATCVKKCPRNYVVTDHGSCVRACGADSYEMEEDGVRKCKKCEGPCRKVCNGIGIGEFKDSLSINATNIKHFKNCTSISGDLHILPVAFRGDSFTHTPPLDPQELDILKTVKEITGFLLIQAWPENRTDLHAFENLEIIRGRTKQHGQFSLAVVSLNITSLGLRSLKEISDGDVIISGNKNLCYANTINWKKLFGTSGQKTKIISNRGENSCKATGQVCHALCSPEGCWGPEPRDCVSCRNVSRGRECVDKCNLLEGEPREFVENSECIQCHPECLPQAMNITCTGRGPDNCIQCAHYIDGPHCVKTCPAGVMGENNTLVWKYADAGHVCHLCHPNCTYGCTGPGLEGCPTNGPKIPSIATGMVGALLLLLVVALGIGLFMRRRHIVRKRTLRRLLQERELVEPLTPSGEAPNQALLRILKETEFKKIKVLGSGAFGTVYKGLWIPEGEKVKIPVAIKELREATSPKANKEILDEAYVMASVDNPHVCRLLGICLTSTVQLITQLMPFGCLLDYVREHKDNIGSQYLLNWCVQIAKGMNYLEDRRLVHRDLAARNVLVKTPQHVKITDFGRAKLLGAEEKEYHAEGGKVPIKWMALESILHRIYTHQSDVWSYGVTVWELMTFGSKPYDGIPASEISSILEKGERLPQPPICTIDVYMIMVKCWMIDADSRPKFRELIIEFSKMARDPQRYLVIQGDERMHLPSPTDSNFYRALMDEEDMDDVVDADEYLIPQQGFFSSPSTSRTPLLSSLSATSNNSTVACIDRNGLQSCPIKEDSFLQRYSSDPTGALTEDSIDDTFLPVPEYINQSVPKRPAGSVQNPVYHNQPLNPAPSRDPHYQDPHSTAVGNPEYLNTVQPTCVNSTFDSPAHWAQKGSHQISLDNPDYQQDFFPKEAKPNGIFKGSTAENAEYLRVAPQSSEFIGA
VEGFR2, sequence (P35968 20-1356): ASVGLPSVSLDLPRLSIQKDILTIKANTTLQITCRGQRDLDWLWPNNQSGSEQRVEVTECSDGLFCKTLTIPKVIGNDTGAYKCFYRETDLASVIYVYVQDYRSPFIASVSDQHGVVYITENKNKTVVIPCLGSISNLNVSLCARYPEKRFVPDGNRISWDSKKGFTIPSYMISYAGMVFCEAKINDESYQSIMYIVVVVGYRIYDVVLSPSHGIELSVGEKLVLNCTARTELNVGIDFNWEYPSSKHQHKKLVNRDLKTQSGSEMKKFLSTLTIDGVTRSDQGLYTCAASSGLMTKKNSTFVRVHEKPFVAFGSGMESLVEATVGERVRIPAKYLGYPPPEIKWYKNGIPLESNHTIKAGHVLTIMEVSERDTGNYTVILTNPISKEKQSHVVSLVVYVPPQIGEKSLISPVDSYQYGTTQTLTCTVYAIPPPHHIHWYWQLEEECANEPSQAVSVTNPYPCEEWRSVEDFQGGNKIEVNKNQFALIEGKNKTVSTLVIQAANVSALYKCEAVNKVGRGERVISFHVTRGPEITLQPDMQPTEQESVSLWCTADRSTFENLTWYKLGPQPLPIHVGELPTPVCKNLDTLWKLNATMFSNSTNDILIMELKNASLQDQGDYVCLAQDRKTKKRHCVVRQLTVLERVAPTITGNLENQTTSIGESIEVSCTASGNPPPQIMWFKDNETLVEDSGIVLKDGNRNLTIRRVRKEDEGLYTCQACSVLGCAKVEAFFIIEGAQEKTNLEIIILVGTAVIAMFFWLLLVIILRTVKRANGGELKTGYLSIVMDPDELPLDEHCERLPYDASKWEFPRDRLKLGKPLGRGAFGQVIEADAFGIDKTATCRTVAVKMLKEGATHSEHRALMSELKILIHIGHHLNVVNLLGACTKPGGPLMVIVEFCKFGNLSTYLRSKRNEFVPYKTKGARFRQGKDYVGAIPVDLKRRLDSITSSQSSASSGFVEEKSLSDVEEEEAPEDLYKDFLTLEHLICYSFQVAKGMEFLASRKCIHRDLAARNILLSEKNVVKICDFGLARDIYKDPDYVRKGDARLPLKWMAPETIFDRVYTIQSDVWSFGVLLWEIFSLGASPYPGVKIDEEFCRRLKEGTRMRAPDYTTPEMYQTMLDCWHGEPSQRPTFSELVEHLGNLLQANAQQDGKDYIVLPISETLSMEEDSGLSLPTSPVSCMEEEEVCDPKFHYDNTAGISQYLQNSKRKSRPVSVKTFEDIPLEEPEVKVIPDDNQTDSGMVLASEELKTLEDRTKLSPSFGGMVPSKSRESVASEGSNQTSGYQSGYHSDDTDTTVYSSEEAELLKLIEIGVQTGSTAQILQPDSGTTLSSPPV
EGFR^Wt, sequence (P00533 25-1210): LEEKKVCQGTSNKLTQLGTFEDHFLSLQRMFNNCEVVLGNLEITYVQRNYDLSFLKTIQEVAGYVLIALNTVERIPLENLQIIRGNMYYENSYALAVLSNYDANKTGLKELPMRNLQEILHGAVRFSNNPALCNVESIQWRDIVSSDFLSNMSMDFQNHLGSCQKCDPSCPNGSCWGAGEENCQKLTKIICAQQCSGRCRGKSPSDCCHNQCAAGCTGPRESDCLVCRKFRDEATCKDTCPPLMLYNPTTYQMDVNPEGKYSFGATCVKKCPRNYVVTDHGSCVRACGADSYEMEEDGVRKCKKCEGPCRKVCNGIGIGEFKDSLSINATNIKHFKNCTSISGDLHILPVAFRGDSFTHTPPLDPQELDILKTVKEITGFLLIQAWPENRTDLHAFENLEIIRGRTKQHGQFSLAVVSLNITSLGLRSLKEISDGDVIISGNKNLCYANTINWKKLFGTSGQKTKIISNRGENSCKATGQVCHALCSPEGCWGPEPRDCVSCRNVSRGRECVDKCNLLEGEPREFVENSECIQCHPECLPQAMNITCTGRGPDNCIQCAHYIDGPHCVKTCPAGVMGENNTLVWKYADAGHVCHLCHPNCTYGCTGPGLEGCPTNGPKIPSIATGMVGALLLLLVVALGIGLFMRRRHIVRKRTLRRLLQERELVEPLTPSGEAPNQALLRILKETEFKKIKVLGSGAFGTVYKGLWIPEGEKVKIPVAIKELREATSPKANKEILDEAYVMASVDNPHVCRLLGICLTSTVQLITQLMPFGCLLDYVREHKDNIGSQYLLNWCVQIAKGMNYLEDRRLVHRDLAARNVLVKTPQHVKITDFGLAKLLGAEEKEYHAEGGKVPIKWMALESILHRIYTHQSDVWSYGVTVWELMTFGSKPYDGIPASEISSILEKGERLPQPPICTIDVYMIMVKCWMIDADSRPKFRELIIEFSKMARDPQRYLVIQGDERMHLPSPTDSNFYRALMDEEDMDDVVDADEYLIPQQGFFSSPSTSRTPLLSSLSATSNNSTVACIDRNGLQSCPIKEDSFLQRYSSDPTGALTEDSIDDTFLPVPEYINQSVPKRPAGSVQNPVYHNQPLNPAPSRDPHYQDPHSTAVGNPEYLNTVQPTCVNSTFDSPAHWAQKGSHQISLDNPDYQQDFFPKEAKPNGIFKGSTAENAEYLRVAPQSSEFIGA

O=S(=O)(c1ccc2nc(Cl)c(Cl)nc2c1)N1CCCC1 [Compound 7, 2,3-Dichloro-6-(pyrrolidin-1-ylsulfonyl)quinoxaline]
IC50 [1]: 48.7 ± 2.8 µM
IC50 [2]: 38.1 ± 2.2 µM

N#CC(C#N)=C1Sc2nc3ccc(S(=O)(=O)N4CCCC4)cc3nc2S1 [Compound 10a, 2-(6-(Pyrrolidin-1-ylsulfonyl)-[1,3]dithiolo[4,5-b]quinoxalin-2-ylidene)malononitrile]
IC50 [1]: 89.7 ± 4.5 µM
IC50 [2]: 93.8 ± 4.7 µM

CCOC(=O)C(C#N)=C1Sc2nc3ccc(S(=O)(=O)N4CCCC4)cc3nc2S1 [Compound 10b, Ethyl 2-cyano-2-(6-(pyrrolidin-1-ylsulfonyl)-[1,3]dithiolo[4,5-b]quinoxalin-2-ylidene)acetate]
IC50 [1]: 80.3 ± 4.1 µM
IC50 [2]: 87.4 ± 4.2 µM

N#CC(C(=O)Nc1cccc(C(F)(F)F)c1)=C1Sc2nc3ccc(S(=O)(=O)N4CCCC4)cc3nc2S1 [Compound 10c, 2-Cyano-2-(6-(pyrrolidin-1-ylsulfonyl)-[1,3]dithiolo[4,5-b]quinoxalin-2-ylidene)-N-(3-(trifluoromethyl)phenyl)acetamide]
Selectivity index (SI) [1]: 3.82
IC50 [1]: 17 ± 1.3 µM
Selectivity index (SI) [3]: 8.48
IC50 at 24 h [4]: 65.1 ± 3.5 µM
Selectivity index (SI) [5]: 10.61
IC50 ([5]; MCF-7, MTT, 24 h): 6.13 ± 0.4 µM
Selectivity index (SI) [2]: 7.01
IC50 [2]: 9.26 ± 0.8 µM

COc1ccc(C=NNC(=O)C(C#N)=C2Sc3nc4ccc(S(=O)(=O)N5CCCC5)cc4nc3S2)cc1 [Compound 10d, 2-Cyano-N′-(4-methoxybenzylidene)-2-(6-(pyrrolidin-1-ylsulfonyl)-[1,3]dithiolo[4,5-b]quinoxalin-2-ylidene)acetohydrazide]
IC50 [1]: 32.1 ± 2.2 µM
IC50 [2]: 18.4 ± 1.4 µM

N#CC(C(=O)NN=C1C(=O)Nc2ccccc21)=C1Sc2nc3ccc(S(=O)(=O)N4CCCC4)cc3nc2S1 [Compound 10e, 2-Cyano-N′-(2-oxoindolin-3-ylidene)-2-(6-(pyrrolidin-1-ylsulfonyl)-[1,3]dithiolo[4,5-b]quinoxalin-2-ylidene)acetohydrazide]
IC50 [1]: 41.9 ± 2.5 µM
IC50 [2]: 22 ± 1.7 µM

CCOC(=O)C(C(C)=O)=C1Sc2nc3ccc(S(=O)(=O)N4CCCC4)cc3nc2S1 [Compound 10f, Ethyl 3-oxo-2-(6-(pyrrolidin-1-ylsulfonyl)-[1,3]dithiolo[4,5-b]quinoxalin-2-ylidene)butanoate]
Selectivity index (SI) [1]: 1.76
IC50 [1]: 26.8 ± 1.9 µM
Selectivity index (SI) [3]: 4.41
IC50 at 24 h [4]: 46.2 ± 2.4 µM
Selectivity index (SI) [5]: 5.27
IC50 ([5]; MCF-7, MTT, 24 h): 8.78 ± 0.6 µM
Selectivity index (SI) [2]: 3.69
IC50 [2]: 12.5 ± 1 µM

O=C1CCCCC1=C1Sc2nc3ccc(S(=O)(=O)N4CCCC4)cc3nc2S1 [Compound 12, 2-(6-(Pyrrolidin-1-ylsulfonyl)-[1,3]dithiolo[4,5-b]quinoxalin-2-ylidene)cyclohexan-1-one]
Selectivity index (SI) [1]: 9.89
IC50 [1]: 8.25 ± 0.6 µM
Cell cycle distribution %G2/M ([6]; untreated control 12.55): 7.32%
Cell cycle distribution %G0-G1 ([6]; untreated control 57.66): 48.16%
IC50 ([7]; Enzyme inhibitory activity IC50 EGFR^Wt): 190 ± 9 nM
inhibition at 10 µM ([7]; read-out: Inhibitory% EGFR^Wt): 85.4%
Increase in early apoptosis compared to the control ([8]; MCF-7): 54.59 folds
Increase in late apoptosis compared to the control ([8]; MCF-7): 79.33 folds
Apoptosis Late ([8]; MCF-7, at IC50 for 24 h, control 0.15): 11.9%
Apoptosis Early ([8]; MCF-7, at IC50 for 24 h, control 0.44): 24.02%
Necrosis ([8]; MCF-7, at IC50 for 24 h, control 1.25): 6.16%
Apoptosis Total ([8]; MCF-7, at IC50 for 24 h, control 1.84): 42.08%
IC50 ([9]; Enzyme inhibitory activity IC50 VEGFR2): 420 ± 21 nM
inhibition at 10 µM ([9]; read-out: Inhibitory% VEGFR2): 78.9%
Selectivity index (SI) [3]: 36.12
Fold increase of potency as compared with doxorubicin ([3]; MDA-MB-231): 1.41 fold
IC50 at 24 h [4]: 81.6 ± 4.1 µM
IC50 ([10]; Enzyme inhibitory activity IC50 EGFR^(L858R)): 121 ± 7 nM
inhibition at 10 µM ([10]; read-out: Inhibitory% EGFR^(L858R)): 87%
Selectivity index (SI) [5]: 21.37
IC50 ([5]; Homo sapiens, MCF7, 24 h): 3.82 ± 0.2 µM
Fold increase of potency as compared with doxorubicin ([5]; MCF-7): 1.09 fold
Selectivity index (SI) [2]: 10.26
IC50 [2]: 7.95 ± 0.5 µM
RT-PCR results fold change p53 (pro-apoptotic) [11]: 4.97 fold

CC1=NNC(=O)C1=C1Sc2nc3ccc(S(=O)(=O)N4CCCC4)cc3nc2S1 [Compound 14, 5-Methyl-4-(6-(pyrrolidin-1-ylsulfonyl)-[1,3]dithiolo[4,5-b]quinoxalin-2-ylidene)-2,4-dihydro-3H-pyrazol-3-one]
IC50 [1]: 69 ± 3.9 µM
IC50 [2]: 71.2 ± 3.8 µM

CC1=NN(c2ccccc2)C(=O)C1=C1Sc2nc3ccc(S(=O)(=O)N4CCCC4)cc3nc2S1 [Compound 16, 5-Methyl-2-phenyl-4-(6-(pyrrolidin-1-ylsulfonyl)-[1,3]dithiolo[4,5-b]quinoxalin-2-ylidene)-2,4-dihydro-3H-pyrazol-3-one]
IC50 [1]: > 100 µM
IC50 [2]: > 100 µM

O=C1NC(=O)C(=C2Sc3nc4ccc(S(=O)(=O)N5CCCC5)cc4nc3S2)C(=O)N1 [Compound 18, 5-(6-(Pyrrolidin-1-ylsulfonyl)-[1,3]dithiolo[4,5-b]quinoxalin-2-ylidene)pyrimidine-2,4,6(1H,3H,5H)-trione]
IC50 [1]: 83.4 ± 4.3 µM
IC50 ([5]; Homo sapiens, MCF7, 24 h): 62.8 ± 3.4 µM
IC50 [2]: > 100 µM

COc1cccc2c1C(=O)c1c(O)c3c(c(O)c1C2=O)C[C@@](O)(C(=O)CO)C[C@@H]3O[C@H]1C[C@H](N)[C@H](O)[C@H](C)O1 [Doxorubicin, doxorubicin, reference compound]
IC50 [1]: 4.5 ± 0.2 µM
